Assay in all cases: relative viability (nuclei count vs DMSO), 5 days (fraction); higher = more cells survive
Compound in the assay “MK-8033 + Vorinostat”: Cn1cc(-c2cnc3ccc4ccc(CS(=O)(=O)NCc5ccccn5)cc4c(=O)c3c2)cn1 [MK-8033] + O=C(CCCCCCC(=O)Nc1ccccc1)NO [Vorinostat] (partner 1 µM)
The essentials:
(§1)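 Lung cancer cell lines in 1536-well plates were dosed by pin tool the day after seeding, either with one drug alone or with a fixed anchor-drug dose plus five library-drug doses (not always all listed) in √10 steps. After 5 days, cells were fixed and their nuclei stained in one step (final 0.05% Triton X-100, 1% formaldehyde, 1 ug/ml Hoechst), then counted on 4× images. Relative viability is the nuclei count in treated wells divided by that in vehicle wells. Values are medians of duplicate plates.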

Compound in the assay “MK-8033 + Pictilisib”: Cn1cc(-c2cnc3ccc4ccc(CS(=O)(=O)NCc5ccccn5)cc4c(=O)c3c2)cn1 [MK-8033] + CS(=O)(=O)N1CCN(Cc2cc3nc(-c4cccc5[nH]ncc45)nc(N4CCOCC4)c3s2)CC1 [Pictilisib] (partner 1 µM)
An outline of the steps:
as §1

Compound in the assay “Irinotecan + OSI-027”: CCc1c2c(nc3ccc(OC(=O)N4CCC(N5CCCCC5)CC4)cc13)-c1cc3c(c(=O)n1C2)COC(=O)[C@]3(O)CC [Irinotecan] + COc1cccc2cc(-c3nc([C@H]4CC[C@H](C(=O)O)CC4)n4ncnc(N)c34)[nH]c12 [OSI-027] (partner 0.5 µM)
The essentials:
as §1

Compound in the assay “RU-SKI 43 + Tozasertib”: CC[C@@H](C)CNCC(=O)N1CCC2=C([C@@H]1COC3=CC=CC(=C3)C)C=CS2 [RU-SKI 43] + Cc1cc(Nc2cc(N3CCN(C)CC3)nc(Sc3ccc(NC(=O)C4CC4)cc3)n2)n[nH]1 [Tozasertib] (partner 0.1 µM)
An outline of the steps: as §1

Consider NCI-H2170, for which the relative viability worked out at 0.802 with MK-8033 + Vorinostat (first compound 0.02 µM); 0.882 with MK-8033 + Vorinostat (first compound 0.06325 µM); 0.691 in the assay with MK-8033 + Vorinostat (first compound 0.2 µM); 0.768 in the assay with MK-8033 + Vorinostat (first compound 0.6325 µM); 0.79 with MK-8033 + Vorinostat (first compound 2 µM); 0.382 in the assay with MK-8033 + Pictilisib (first compound 0.02 µM). In addition, the relative viability with MK-8033 + Pictilisib (first compound 0.06325 µM) worked out at 0.291; with MK-8033 + Pictilisib (first compound 0.2 µM) it was 0.293; with MK-8033 + Pictilisib (first compound 0.6325 µM) it was 0.32; with MK-8033 + Pictilisib (first compound 2 µM), 0.302; in the assay with Irinotecan + OSI-027 (first compound 0.6325 µM), 0.546; in the assay with Irinotecan + OSI-027 (first compound 2 µM) it was 0.767. The relative viability turned out to be 0.255 with Irinotecan + OSI-027 (first compound 6.325 µM); 0.174 in the assay with Irinotecan + OSI-027 (first compound 20 µM); 0.701 with RU-SKI 43 + Tozasertib (first compound 0.1 µM); 0.953 with RU-SKI 43 + Tozasertib (first compound 0.3162 µM); 0.751 with RU-SKI 43 + Tozasertib (first compound 1 µM); 0.722 in the assay with RU-SKI 43 + Tozasertib (first compound 3.162 µM). For the same cell line, the relative viability with RU-SKI 43 + Tozasertib (first compound 10 µM) is 0.701.
In the case of NCI-H2228, the relative viability in the assay with MK-8033 + Vorinostat (first compound 0.02 µM) stood at 0.594; with MK-8033 + Vorinostat (first compound 0.06325 µM) it was 0.562; with MK-8033 + Vorinostat (first compound 0.2 µM), 0.417; in the assay with MK-8033 + Vorinostat (first compound 0.6325 µM), 0.696; with MK-8033 + Vorinostat (first compound 2 µM), 0.821; with MK-8033 + Pictilisib (first compound 0.02 µM) it was 0.397. In addition, the relative viability in the assay with MK-8033 + Pictilisib (first compound 0.06325 µM) is 0.599; with MK-8033 + Pictilisib (first compound 0.2 µM), 0.356; with MK-8033 + Pictilisib (first compound 0.6325 µM), 0.336; with MK-8033 + Pictilisib (first compound 2 µM) it was 0.357; with Irinotecan + OSI-027 (first compound 0.6325 µM) it was 0.341; with Irinotecan + OSI-027 (first compound 2 µM) it was 0.472. Besides, the relative viability in the assay with Irinotecan + OSI-027 (first compound 6.325 µM) stood at 0.288; with Irinotecan + OSI-027 (first compound 20 µM) it was 0.342; with RU-SKI 43 + Tozasertib (first compound 0.1 µM), 0.256; with RU-SKI 43 + Tozasertib (first compound 0.3162 µM), 0.264; with RU-SKI 43 + Tozasertib (first compound 1 µM) it was 0.184; with RU-SKI 43 + Tozasertib (first compound 3.162 µM) it was 0.249. For the same cell line, the relative viability with RU-SKI 43 + Tozasertib (first compound 10 µM) was determined as 0.255.
On to NCI-H2347, for which the relative viability is 0.544 with MK-8033 + Vorinostat (first compound 0.02 µM); 0.537 in the assay with MK-8033 + Vorinostat (first compound 0.06325 µM); 0.501 with MK-8033 + Vorinostat (first compound 0.2 µM); 0.717 with MK-8033 + Vorinostat (first compound 0.6325 µM); 0.597 in the assay with MK-8033 + Vorinostat (first compound 2 µM); 0.685 in the assay with MK-8033 + Pictilisib (first compound 0.02 µM). Besides, the relative viability with MK-8033 + Pictilisib (first compound 0.06325 µM) turned out to be 0.438; with MK-8033 + Pictilisib (first compound 0.2 µM), 0.597; with MK-8033 + Pictilisib (first compound 0.6325 µM), 0.771; with MK-8033 + Pictilisib (first compound 2 µM) it was 0.603; with Irinotecan + OSI-027 (first compound 0.6325 µM), 0.27; with Irinotecan + OSI-027 (first compound 2 µM), 0.375. The relative viability with Irinotecan + OSI-027 (first compound 6.325 µM) is 0.337; with Irinotecan + OSI-027 (first compound 20 µM) it was 0.386; with RU-SKI 43 + Tozasertib (first compound 0.1 µM) it was 0.448; in the assay with RU-SKI 43 + Tozasertib (first compound 0.3162 µM) it was 0.449; with RU-SKI 43 + Tozasertib (first compound 1 µM), 0.523; with RU-SKI 43 + Tozasertib (first compound 3.162 µM), 0.535. In addition, the relative viability with RU-SKI 43 + Tozasertib (first compound 10 µM) was found to be 0.501.
Consider NCI-H2405, for which the relative viability with MK-8033 + Vorinostat (first compound 0.02 µM) is 1.1; with MK-8033 + Vorinostat (first compound 0.06325 µM), 0.988; with MK-8033 + Vorinostat (first compound 0.2 µM), 0.9; with MK-8033 + Vorinostat (first compound 0.6325 µM), 1.06; with MK-8033 + Vorinostat (first compound 2 µM), 1.04; in the assay with MK-8033 + Pictilisib (first compound 0.02 µM) it was 0.502. The relative viability with MK-8033 + Pictilisib (first compound 0.06325 µM) came to 0.445; with MK-8033 + Pictilisib (first compound 0.2 µM), 0.404; in the assay with MK-8033 + Pictilisib (first compound 0.6325 µM) it was 0.434; with MK-8033 + Pictilisib (first compound 2 µM), 0.593; with Irinotecan + OSI-027 (first compound 2 µM), 0.596; with Irinotecan + OSI-027 (first compound 6.325 µM) it was 0.382. Also, the relative viability came to 0.289 in the assay with Irinotecan + OSI-027 (first compound 20 µM); 0.73 with RU-SKI 43 + Tozasertib (first compound 0.1 µM); 0.705 with RU-SKI 43 + Tozasertib (first compound 0.3162 µM); 0.713 in the assay with RU-SKI 43 + Tozasertib (first compound 1 µM); 0.701 with RU-SKI 43 + Tozasertib (first compound 3.162 µM); 0.629 with RU-SKI 43 + Tozasertib (first compound 10 µM).
As for NCI-H3122, the relative viability is 0.834 in the assay with MK-8033 + Vorinostat (first compound 0.02 µM); 1.3 with MK-8033 + Vorinostat (first compound 0.06325 µM); 0.879 in the assay with MK-8033 + Vorinostat (first compound 0.2 µM); 1.14 in the assay with MK-8033 + Vorinostat (first compound 0.6325 µM); 1.01 in the assay with MK-8033 + Vorinostat (first compound 2 µM); 0.676 in the assay with MK-8033 + Pictilisib (first compound 0.02 µM). Further, the relative viability in the assay with MK-8033 + Pictilisib (first compound 0.06325 µM) worked out at 0.563; with MK-8033 + Pictilisib (first compound 0.2 µM), 0.602; with MK-8033 + Pictilisib (first compound 0.6325 µM), 0.66; in the assay with MK-8033 + Pictilisib (first compound 2 µM), 0.628; with Irinotecan + OSI-027 (first compound 0.6325 µM), 1.04; with Irinotecan + OSI-027 (first compound 2 µM), 0.649. The relative viability in the assay with Irinotecan + OSI-027 (first compound 6.325 µM) was found to be 0.22; in the assay with Irinotecan + OSI-027 (first compound 20 µM), 0.0566; in the assay with RU-SKI 43 + Tozasertib (first compound 0.1 µM), 0.372; with RU-SKI 43 + Tozasertib (first compound 0.3162 µM), 0.416; with RU-SKI 43 + Tozasertib (first compound 1 µM), 0.495; with RU-SKI 43 + Tozasertib (first compound 3.162 µM) it was 0.392. Moreover, the relative viability with RU-SKI 43 + Tozasertib (first compound 10 µM) is 0.369.
PC-3 [JPC-3]: the relative viability with MK-8033 + Vorinostat (first compound 0.02 µM) is 0.886; with MK-8033 + Vorinostat (first compound 0.2 µM) it was 0.77; with MK-8033 + Vorinostat (first compound 0.6325 µM), 0.924; with MK-8033 + Vorinostat (first compound 2 µM), 0.817; with MK-8033 + Pictilisib (first compound 0.02 µM) it was 0.666; with MK-8033 + Pictilisib (first compound 0.2 µM) it was 0.655. Moreover, the relative viability stood at 0.56 with MK-8033 + Pictilisib (first compound 0.6325 µM); 0.762 in the assay with MK-8033 + Pictilisib (first compound 2 µM); 0.46 with Irinotecan + OSI-027 (first compound 0.6325 µM); 0.785 in the assay with Irinotecan + OSI-027 (first compound 2 µM); 0.397 with Irinotecan + OSI-027 (first compound 6.325 µM); 0.344 with Irinotecan + OSI-027 (first compound 20 µM). The relative viability in the assay with RU-SKI 43 + Tozasertib (first compound 0.1 µM) turned out to be 0.815; with RU-SKI 43 + Tozasertib (first compound 0.3162 µM), 0.953; in the assay with RU-SKI 43 + Tozasertib (first compound 1 µM) it was 1.02; with RU-SKI 43 + Tozasertib (first compound 3.162 µM), 0.959; with RU-SKI 43 + Tozasertib (first compound 10 µM) it was 0.773.

These data come from the supplement of paper PMC10307832.
